In US20220315598A1, “Oxygen-containing Heterocyclic Compound, Preparation Method Therefor and Use Thereof” (SHANGHAI YINGLI PHARMACEUTICAL CO., LTD, priority 2019, published 2022):
Like-named read-outs stand apart in the source and are kept apart here.

Tests used:
NCI-H358 cells = experiment: Proliferation inhibition on NCI-H358 cell line by CTG method; type: cell-based, human; conditions: CellTiter Glo, 120 hours
Method: (§1) NCI-H358 was a human non-small cell lung cancer cell with KRAS G12C mutation; A549 was a human non-small cell lung cancer cell with KRAS G12V mutation: and A375 was a wild-type malignant melanoma cell. The inhibitory effects of compounds on different mutations were evaluated by testing the proliferation inhibitory activity of these compounds on the three cell lines.
(§2) 40 μL of cell suspension to be tested was added to each well (except for peripheral wells) of three 384-well plates (plate 1: NCI-H358 cell suspension: plate 2: A549 cell suspension: plate 3: A375 cell suspension). The plates were placed in a carbon dioxide incubator overnight. […] The plates were incubated in a carbon dioxide incubator for 120 hours. To the 384-well plates were added 25 μL of CellTiter Glo reagents, and the mixture was shaken in the dark for 10 minutes and incubated for 10 minutes. The plates were read on the EnVision plate reader. XLFit was used to draw inhibition rate curves of efficacy and IC50 values were calculated. […] “---” represents not determined.
Experiments for Testing Proliferation Inhibition of Compounds on NCI-H358 Cell Lines by CTG Method

A549 cells = experiment: Proliferation inhibition on A549 cell line by CTG method; type: cell-based, human
Method: as §1, §2

A375 cells = experiment: Proliferation inhibition on A375 cell line by CTG method; type: cell-based; conditions: Table 1, CellTiter Glo, 120 hours, class symbol
Method: as §1, §2

[1] = Homo sapiens, NCI-H358, 120 h, Table 1, class symbol, read-out: IC50 (μM): (H358)
[2] = Homo sapiens, A549, 120 h, Table 1, CellTiter Glo, class symbol
[3] = Table 1, class symbol, read-out: IC50 (μM): (H358)
[4] = Table 1, CellTiter Glo, 120 hours, class symbol
[5] = Homo sapiens, NCI-H358, 120 h, Table 2, class symbol, read-out: IC50 (nM) H358

SMILES	IC50 (NCI-H358 cells; [1]) [µM]	IC50 (A549 cells; [2]) [µM]	further results
C=CC(=O)N1CCN(c2nc(OC[C@@H]3CCCN3C)nc3c2COCC3)C[C@@H]1CC#N [Compound 1]	> 1	> 1	IC50 (NCI-H358 cells; Homo sapiens, NCI-H358, 120 h, Table 1, number, read-out: IC50 (μM): (H358)): > 10 µM; IC50 (A549 cells; Homo sapiens, A549, 120 h, Table 1, CellTiter Glo, number): > 10 µM
C=CC(=O)N1CCN(c2nc(OC[C@@H]3CCCN3C)nc3c2COC(c2ccccc2C(F)(F)F)C3)C[C@@H]1CC#N (stereo partly drawn) [Compound 2-1]	–	–	IC50 (A375 cells): > 1 µM; IC50 (NCI-H358 cells; [3]): < 1 µM; IC50 (A549 cells; [4]): > 1 µM
C=CC(=O)N1CCN(c2nc(OC[C@@H]3CCCN3C)nc3c2COC(c2cccc4ccccc24)C3)C[C@@H]1CC#N (stereo partly drawn) [Compound 3-1]	–	–	IC50 (A375 cells; Homo sapiens, A-375): > 1 µM
C=CC(=O)N1CCN(c2nc(OC[C@@H]3CCCN3C)nc3c2COC(c2cccc4ccccc24)C3)C[C@@H]1CC#N (stereo partly drawn) [Compound 3-2]	–	–	IC50 (A375 cells): > 1 µM
C=CC(=O)N1CCN(c2nc(OC[C@@H]3CCCN3C)nc3c2COC(c2cccc4ccccc24)C3)C[C@@H]1CC#N (stereo partly drawn) [Compound 3]	< 1	> 1	–
C=CC(=O)N1CCN(c2nc(OC[C@@H]3CCCN3C)nc3c2COC(c2cccc4cccc(C)c24)C3)C[C@@H]1CC#N (stereo partly drawn) [Compound 4-1]	–	–	IC50 (A375 cells; Homo sapiens, A-375): > 1 µM; IC50 (NCI-H358 cells; [3]): < 1 µM
C=CC(=O)N1CCN(c2nc(OC[C@@H]3CCCN3C)nc3c2COC(c2cccc4cccc(C)c24)C3)C[C@@H]1CC#N (stereo partly drawn) [Compound 4-2]	–	–	IC50 (A375 cells): > 1 µM; IC50 (NCI-H358 cells; [3]): < 1 µM; IC50 (A549 cells; [4]): > 1 µM
C=CC(=O)N1CCN(c2nc(OC[C@@H]3CCCN3C)nc3c2COC(c2cccc4cccc(C)c24)C3)C[C@@H]1CC#N (stereo partly drawn) [Compound 4]	< 1	> 1	–
C=CC(=O)N1CCN(c2nc(OCCN(C)C)nc3c2COC(c2cccc4cccc(C)c24)C3)C[C@@H]1CC#N (stereo partly drawn) [Compound 5]	< 1	> 1	–
C=CC(=O)N1CCN(c2nc(OCCN(CC)CC)nc3c2COC(c2cccc4cccc(C)c24)C3)C[C@@H]1CC#N (stereo partly drawn) [Compound 6-2]	< 1	> 1	–
C=CC(=O)N1CCN(c2nc(OCCCN(C)C)nc3c2COC(c2cccc4cccc(C)c24)C3)C[C@@H]1CC#N (stereo partly drawn) [Compound 7]	< 1	> 1	–
C=CC(=O)N1CCN(c2nc(OC[C@@H]3CCCN3C)nc3c2COC(c2cccc4cccc(C)c24)C3)CC1 (stereo partly drawn) [Compound 8]	< 1	> 1	–
C=CC(=O)N1CCN(c2nc(N(C)CCN(C)C)nc3c2COC(c2cccc4cccc(C)c24)C3)C[C@@H]1CC#N (stereo partly drawn) [Compound 9]	< 1	> 1	–
C/C=C/C(=O)N1CCN(c2nc(OC[C@@H]3CCCN3C)nc3c2COC(c2cccc4cccc(C)c24)C3)C[C@@H]1CC#N (stereo partly drawn) [Compound 10]	< 1	> 1	IC50 (A375 cells; Homo sapiens, A-375): > 1 µM
C=CC(=O)N1CCN(c2nc(OC[C@@H]3CCCN3C)nc3c2COC(c2cccc4cccc(C)c24)C3)[C@@H](C)C1 (stereo partly drawn) [Compound 11-2]	< 1	> 1	IC50 (A375 cells; Homo sapiens, A-375): > 1 µM
C=C(F)C(=O)N1CCN(c2nc(OC[C@@H]3CCCN3C)nc3c2COC(c2cccc4cccc(Cl)c24)C3)C[C@@H]1CC#N (stereo partly drawn) [Compound 12-2]	< 1	> 1	IC50 (A375 cells; Homo sapiens, A-375): > 1 µM
C=C(F)C(=O)N1CCN(c2nc(OC[C@@H]3CCCN3C)nc3c2COC(c2cccc4cccc(C)c24)C3)C[C@@H]1CC#N (stereo partly drawn) [Compound 13]	< 1	> 1	IC50 (A375 cells; Homo sapiens, A-375): > 1 µM
CN(C)C/C=C/C(=O)N1CCN(c2nc(OC[C@@H]3CCCN3C)nc3c2CO[C@H](c2cccc4cccc(Cl)c24)C3)C[C@@H]1CC#N [Compound 36]	–	–	IC50 (NCI-H358 cells; [5]): < 1 µM
CN1CCC[C@H]1COc1nc2c(c(N3CCN(C#N)[C@@H](CC#N)C3)n1)CO[C@H](c1cccc3cccc(Cl)c13)C2 [Compound 41]	–	–	IC50 (NCI-H358 cells; [5]): < 1 µM
CC(=O)/C=C/C(=O)N1CCN(c2nc(OC[C@@H]3CCCN3C)nc3c2CO[C@H](c2cccc4cccc(Cl)c24)C3)C[C@@H]1CC#N [Compound 44]	–	–	IC50 (NCI-H358 cells; [5]): < 1 µM
C=CC(=O)N1CCN(c2nc(NCCN(C)C)nc3c2CO[C@H](c2cccc4cccc(Cl)c24)C3)C[C@@H]1CC#N [Compound 45]	–	–	IC50 (NCI-H358 cells; [5]): < 1 µM
C=CC(=O)N1CCN(c2nc(SCCN(C)C)nc3c2CO[C@H](c2cccc4cccc(Cl)c24)C3)C[C@@H]1CC#N [Compound 46]	–	–	IC50 (NCI-H358 cells; [5]): < 1 µM
